{"source": "patent US20230293512A1", "about": "“S100 PROTEINS AS NOVEL THERAPEUTIC TARGETS IN MYELOPROLIFERATIVE NEOPLASMS” (ERASMUS UNIVERSITY MEDICAL CENTER ROTTERDAM, priority 2020, published 2023)", "key": {"[1]": {"system": "S100A8 and S100A9", "conditions": "Stewart et al, Bone Marrow Res. 2018; cited from earlier work"}, "[2]": {"system": "mice developing JAK2(V617F)-mediated myelofibrosis", "assay": "Tasquinimod treatment of mice with JAK2(V617F)-induced myelofibrosis", "format": "in vivo", "conditions": "JAK2(V617F)-transplanted mice, 30 mg/kg/day in drinking water; for MPN-specific leukocytosis (white blood cell counts from peripheral blood) / splenomegaly (spleen weights normalized to mouse weight) / bone marrow fibrosis grade (reticulin grade): 30 mg/kg/day; for bone marrow fibrosis grade (reticulin grade): vehicle-treated mice developed grade 2-3 fibrosis and osteosclerosis", "experimental": "Murine organs were fixed in 4% paraformaldehyde for 24 hours and transferred to 70% ethanol. Femurs were decalcified in 10% EDTA/Tris-HCl (pH 6.6) solution for 72 hours, dehydrated and paraffin embedded. H&E and reticulin staining were performed on 4 μm sections according to established routine protocols.\nBlood was periodically collected from mice via submandibular bleeds into Microtainer tubes coated with K2EDTA (Becton Dickinson, NJ, USA) and complete blood counts were performed on a Horiba Scil Vet abc Plus hematology system.\nFor tasquinimod studies, WT recipient mice (n=7-10/group) were lethally irradiated (10.5 Gy) and received ckit^+ cells transduced with […] or JAK2^(WT) retroviral virus. Tasquinimod treatment (ABR-215050, Biorbyt) was administered via drinking water at 30 mg/kg/day dissolved in 3% sucrose in autoclaved water. Tasquinimod was first dissolved in DMSO and mixed with 3% sucrose, 2% PEG300 (Sigma) in water. Vehicle-treated groups received DMSO-, PEG300-treated water with 3% sucrose. Drinking bottles were renewed twice a week. Treatment was started at 5 weeks post-transplant until 10 post-transplant, and resumed at 13 weeks post-transplant until sacrifice at 20 weeks post-transplant. Mice were randomly assigned to transplant and treatment groups.\nTo further validate the role of S100A8/S100A9 in the fibrotic initiation and progression, the inventors sought to use a S100A9-inhibitor known as tasquinimod (ABR-215050) in mice developing JAK2(V617F)-mediated myelofibrosis. […] Tasquinimod treatment was administered via drinking water starting at 5 weeks post-transplant, until sacrifice at 20 weeks post-transplant with a treatment break at 10 weeks post-transplant to minimize deleterious effects on normal granulocyte function (FIG. 4A)."}, "[3]": {"target": "T1, S100A9 protein (Homo sapiens, UniProt P06702)", "T1 sequence (P06702 1-114)": "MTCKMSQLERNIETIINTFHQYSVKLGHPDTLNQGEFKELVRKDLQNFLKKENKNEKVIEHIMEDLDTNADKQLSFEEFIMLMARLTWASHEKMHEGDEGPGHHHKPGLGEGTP", "conditions": "cited from earlier work"}, "[4]": {"conditions": "weeks 5-10 and 13-20 post-transplant, vs vehicle"}, "[5]": {"conditions": "weeks 5-10 and 13-20 post-transplant, vs vehicle, listed as Tasquinimod"}}, "data": [{"smiles": "Cc1sc2c(c1C)C(c1ccc(Cl)cc1)=N[C@@H](CC(=O)OC(C)(C)C)c1nnc(C)n1-2", "note": "[JQ1]", "values": [{"measurement": "S100A8 and S100A9 mRNA and protein levels", "setting": "[1]", "result": "suppress S100A8 and S100A9 mRNA and protein levels"}]}, {"smiles": "COc1cccc2c1c(O)c(C(=O)N(C)c1ccc(C(F)(F)F)cc1)c(=O)n2C", "note": "[tasquinimod, 4-hydroxy-5-methoxy-N,1-dimethyl-2-oxo-N-[4-(trifluoromethyl)phenyl]-1,2-dihydroquinoline-3-carboxamide]", "values": [{"measurement": "thrombocytosis (platelet counts in peripheral blood)", "setting": "[2]; [4]", "result": "did not develop thrombocytosis"}, {"measurement": "MPN-specific leukocytosis (white blood cell counts from peripheral blood)", "setting": "[2]; [4]", "result": "did not develop MPN-specific leukocytosis"}, {"measurement": "splenomegaly (spleen weights normalized to mouse weight)", "setting": "[2]; [4]", "result": "completely normalized"}, {"measurement": "MPN-specific leukocytosis (white blood cell counts from peripheral blood)", "setting": "[2]; [5]", "result": "normalizes splenomegaly and leukocytosis"}, {"measurement": "splenomegaly (spleen weights normalized to mouse weight)", "setting": "[2]; [5]", "result": "normalizes splenomegaly"}, {"measurement": "bone marrow fibrosis grade (reticulin grade)", "setting": "[2]", "result": "reduced fibrosis grade"}, {"measurement": "bone marrow fibrosis grade (reticulin grade)", "setting": "[2]; listed as Tasquinimod", "result": "reduces fibrosis in bone marrow"}, {"measurement": "binding to S100A9 protein and effect on its interaction with TLR4 and RAGE receptors", "setting": "[3]", "result": "binds to S100A9 protein and impedes its interaction with TLR4 and RAGE receptors"}]}]}
